From US20080255090A1, “Ceratamines A and B, and Analogues, Syntheses and Pharmaceutical Compositions Thereof” (THE UNIVERSITY OF BRITISH COLUMBIA, priority 2003, published 2008)
Converted amounts (≈) assume the structure as drawn.

System: mitotic arrest
Experiment: cell-based ELICA assay that detects mitotic arrest (Roberge et al. 2000)
Details: cell-based ELICA assay of Roberge et al. (2000) Cancer Res. 60:5052
Source text: As part of a program to discover new antimitotic natural products, extracts of marine invertebrates are screened in a cell-based assay that detects mitotic arrest (Roberge, M. et al. (2000) Cancer Res. 60:5052). […] The compounds described below, their salts, prodrugs and pharmaceutical compositions thereof are all contemplated within the scope of this invention.
Methods suitable for assaying antimitotic activity of compounds of this invention or compounds used as precursors, may be based on any of a variety of known methodologies including microscopic examination of cells to determine if they are arrested in mitosis. Particularly useful methods employ antibodies specific for mitotic cells, such as the method described in the international patent application published under WO 99/15157 or the assays described in WO 01/38339 and in Roberge et al. (2000) Cancer Res. 60:5052. Assays will typically employ cells which regularly divide in culture (e.g. cancer cells). […]
Immunological methods useful for determination of mitotic cells in an assay include any method for determining antibody-antigen binding, including: immunocytochemistry (e.g. immunofluorescence), flow cytometry, immunoblotting, and ELISA, including those described in Vincent, I. et al. [supra]. High throughput testing of samples may be readily achieved by use of the ELISA or the ELICA assays described in WO 01/38339. […]

Molecule	IC50 (read-out: IC50, antimitotic activity in the cell-based ELICA assay) [µg/mL]	IC50, antimitotic activity in the cell-based ELICA assay [µg/mL]
CNc1nc2ccn(C)c(=O)c(Cc3cc(Br)c(OC)c(Br)c3)c-2n1 [Heterocycle 1, ceratamine A]	10 (≈ 21.4 µM)	
ceratamine B [Heterocycle 2]		10
